Results taken from patent publication US20220298493A1, “INACTIVATION PROCESS FOR VIRUSES” (priority 2019, published 2022).
Where two headings read alike, the source gives them in different places.

System: Chikungunya virus
Details: 200 ppm formaldehyde, 22° C.

C=O [formaldehyde]
reduction of virus titer (TCID50) (after ~9 h): 99%
reduction of virus titer (TCID50) (after ~15 h): 99.9%
